Columns and labels:
[1] = Water solubility/water dilution stability of tretinoin complexes; format: physicochemical; settings: water added until the solution appeared turbid
Method: Weighing was performed, and calculation was performed to obtain the limiting water content of the complexes.

[2] = Complex formation at different molar ratios, state at room temperature; format: physicochemical
Method: Referring to the preparation process in 1.2.1, complexes were prepared using tretinoin and diethanolamine at different ratios (as shown in the table below).
Referring to the preparation process in 1.2 in Example 1, diethanolamine was replaced with triethanolamine, and complexes were prepared using tretinoin and triethanolamine at different ratios (as shown in the table below).

[3] = Liquid nitrogen freezing test; format: physicochemical; settings: frozen about 1 min in liquid nitrogen, rewarmed to room temperature (about 22° C.)
Method: After freezing for about 1 min, the sample was taken out, yielding a reddish-brown transparent solid (hard and brittle). […] The experimental process was as follows: freezing with the spoon, fragmenting, and then melting

[4] = Differential scanning calorimetry (DSC, mDSC); format: physicochemical
[5] = Crystallization induction: cooling test; format: physicochemical; settings: 3 days
Method: About 40 mg of 2 [DEA][RA] was dissolved in the respective solvent at 50° C., a clear solution was obtained and divided equally in 2 groups. After cooling according to the respective procedure, and equilibrating at low temperature for 3 days, no solid form substance was obtained.

[6] = Solubility of the complex in different medium systems (oily mediums); format: physicochemical
Description: 6.1 Study on Solubility of the Tretinoin-Alcoholamine Compound Complex in Different Medium Systems

[7] = Anti-solvent addition test; format: physicochemical; settings: room temperature, about 4 days
Method: The corresponding volume of good solvent was added to an appropriate amount of 2 [DEA][RA] to obtain a clear solution. If there were two corresponding anti-solvents, the clear solution was divided into two parts. At room temperature (about 22° C.), the anti-solvent was slowly added to the clear solution with stirring until solid precipitation was observed (the maximum volume of anti-solvent added was 1.5 mL). If the solid precipitation was observed, the addition of anti-solvent was stopped. After about 4 days of stirring at room temperature, a clear solution was obtained or oiling-out phenomenon was observed, without solid form substance obtained.

[8] = Dynamic moisture sorption (DVS) with PLM before and after; format: physicochemical
[9] = Compatibility of gel matrix and complex; format: physicochemical; settings: 0.17% (0.1% in terms of RA) added to the Carbopol 980 gel matrix
[10] = 2020 edition of Chinese Pharmacopoeia (Part II); cited from earlier work
[11] = tretinoin-diethanolamine complexes, molar ratio [DEA]:[RA] 2:1 to 10:1
[12] = tretinoin-triethanolamine complexes, molar ratio TEA:RA 7:1 to 10:1

CC1=C(/C=C/C(C)=C/C=C/C(C)=C/C(=O)O)C(C)(C)CCC1.CC1=C(/C=C/C(C)=C/C=C/C(C)=C/C(=O)O)C(C)(C)CCC1.OCCNCCO.OCCNCCO.OCCNCCO.OCCNCCO.OCCNCCO [2.5[DEA][RA]]
Maximum water content (water dilution stability) [1]: 92.5%
State at room temperature [2, 11]: Reddish-brown clear liquid

CC1=C(/C=C/C(C)=C/C=C/C(C)=C/C(=O)O)C(C)(C)CCC1.OCCNCCO.OCCNCCO [2[DEA][RA]]
Liquid nitrogen freezing test result upon rewarming [3]: the sample melted immediately
mDSC glass transition temperature ([4]; −25° C. to 25° C.): no glass transition temperature is observed
DSC exothermic or endothermic signals ([4]; −25° C. to 40° C.): no exothermic or endothermic signals
Cooling test results ([5]; test-A1, n-propanol, 50° C.→5° C.): Clear
Cooling test results ([5]; test-A2, n-propanol, 50° C.→−20° C.): Clear
Cooling test results ([5]; test-C1, 1,4-dioxane, 50° C.→5° C.): Clear
Cooling test results ([5]; test-C2, 1,4-dioxane, 50° C.→−20° C., *melting immediately upon taking out): Frozen, yellow opaque*
Cooling test results ([5]; test-D1, DMSO, 50° C.→5° C.): Clear
Maximum water content (water dilution stability) [1]: 91.4%
Solubility in oily medium ([6]; Isopropyl myristate): Insoluble
Solubility in oily medium ([6]; Laurocapram): Insoluble
Solubility in oily medium ([6]; Medium-chain triglyceride): Insoluble
Solubility in oily medium ([6]; Soybean oil): Insoluble
Anti-solvent addition test results ([7]; test-A, good solvent DMSO, anti-solvent ACN 1.5 mL): Clear
Anti-solvent addition test results ([7]; test-B1, good solvent n-propanol, anti-solvent ACN 1.5 mL): Clear
Anti-solvent addition test results ([7]; test-B2, good solvent n-propanol, anti-solvent n-heptane 1.5 mL): Clear
Anti-solvent addition test results ([7]; test-D1, good solvent THF, anti-solvent ACN 1.5 mL): Clear
Anti-solvent addition test results ([7]; test-E1, good solvent IPA, anti-solvent ACN 1.5 mL): Clear
Hygroscopicity (DVS) ([8]; 25° C., 0% RH-95% RH-0% RH): certain hygroscopic properties
Crystalline particles by PLM before and after DVS ([8]; room temperature): no crystalline particles
Compatibility of complex with gel matrix [9]: precipitation of yellow solids
State at room temperature [2, 11]: Reddish-brown clear liquid

CC1=C(/C=C/C(C)=C/C=C/C(C)=C/C(=O)O)C(C)(C)CCC1.OCCNCCO.OCCNCCO.OCCNCCO [3[DEA][RA]]
Maximum water content (water dilution stability) [1]: 93.7%
State at room temperature [2, 11]: Reddish-brown clear liquid

CC1=C(/C=C/C(C)=C/C=C/C(C)=C/C(=O)O)C(C)(C)CCC1.OCCNCCO.OCCNCCO.OCCNCCO.OCCNCCO [4[DEA][RA]]
Maximum water content (water dilution stability) [1]: 94.1%
State at room temperature [2, 11]: Reddish-brown clear liquid

CC1=C(/C=C/C(C)=C/C=C/C(C)=C/C(=O)O)C(C)(C)CCC1.OCCNCCO.OCCNCCO.OCCNCCO.OCCNCCO.OCCNCCO [5[DEA][RA]]
State at room temperature [2, 11]: Reddish-brown clear liquid

CC1=C(/C=C/C(C)=C/C=C/C(C)=C/C(=O)O)C(C)(C)CCC1.OCCNCCO.OCCNCCO.OCCNCCO.OCCNCCO.OCCNCCO.OCCNCCO [6[DEA][RA]]
State at room temperature [2, 11]: Reddish-brown clear liquid

CC1=C(/C=C/C(C)=C/C=C/C(C)=C/C(=O)O)C(C)(C)CCC1.OCCNCCO.OCCNCCO.OCCNCCO.OCCNCCO.OCCNCCO.OCCNCCO.OCCNCCO [7[DEA][RA]]
State at room temperature [2, 11]: Reddish-brown clear liquid

CC1=C(/C=C/C(C)=C/C=C/C(C)=C/C(=O)O)C(C)(C)CCC1.OCCNCCO.OCCNCCO.OCCNCCO.OCCNCCO.OCCNCCO.OCCNCCO.OCCNCCO.OCCNCCO [8[DEA][RA]]
State at room temperature [2, 11]: Reddish-brown clear liquid

CC1=C(/C=C/C(C)=C/C=C/C(C)=C/C(=O)O)C(C)(C)CCC1.OCCN(CCO)CCO.OCCN(CCO)CCO.OCCN(CCO)CCO.OCCN(CCO)CCO.OCCN(CCO)CCO.OCCN(CCO)CCO.OCCN(CCO)CCO.OCCN(CCO)CCO [8[TEA][RA]]
State at room temperature [2, 12]: Reddish-brown clear liquid
State at room temperature ([2]; tretinoin-triethanolamine complexes, molar ratio TEA:RA 7:1 to 10:1, listed as 8 [TEA][RA]): reddish-brown transparent liquid

CC1=C(/C=C/C(C)=C/C=C/C(C)=C/C(=O)O)C(C)(C)CCC1.OCCNCCO.OCCNCCO.OCCNCCO.OCCNCCO.OCCNCCO.OCCNCCO.OCCNCCO.OCCNCCO.OCCNCCO [9[DEA][RA]]
State at room temperature [2, 11]: Reddish-brown clear liquid

CC1=C(/C=C/C(C)=C/C=C/C(C)=C/C(=O)O)C(C)(C)CCC1.OCCN(CCO)CCO.OCCN(CCO)CCO.OCCN(CCO)CCO.OCCN(CCO)CCO.OCCN(CCO)CCO.OCCN(CCO)CCO.OCCN(CCO)CCO.OCCN(CCO)CCO.OCCN(CCO)CCO [9[TEA][RA]]
State at room temperature [2, 12]: Reddish-brown clear liquid

CC1=C(/C=C/C(C)=C/C=C/C(C)=C/C(=O)O)C(C)(C)CCC1.OCCNCCO.OCCNCCO.OCCNCCO.OCCNCCO.OCCNCCO.OCCNCCO.OCCNCCO.OCCNCCO.OCCNCCO.OCCNCCO [10[DEA][RA]]
State at room temperature [2, 11]: Reddish-brown clear liquid

CC1=C(/C=C/C(C)=C/C=C/C(C)=C/C(=O)O)C(C)(C)CCC1.OCCN(CCO)CCO.OCCN(CCO)CCO.OCCN(CCO)CCO.OCCN(CCO)CCO.OCCN(CCO)CCO.OCCN(CCO)CCO.OCCN(CCO)CCO.OCCN(CCO)CCO.OCCN(CCO)CCO.OCCN(CCO)CCO [10[TEA][RA]]
State at room temperature [2, 12]: Reddish-brown clear liquid

CC1=C(/C=C/C(C)=C/C=C/C(C)=C/C(=O)O)C(C)(C)CCC1 [tretinoin]
Solubility in water [10]: extremely insoluble in water
